“Also recorded” adds a separate entry of the source.
Key:
[1] = Drug loading of NPs quantified by HPLC; type: physicochemical; details: loading into PLGA nanoparticles
Description: For both rapamycin and 4-hydoxy-TEMPO encapsulated nanoparticles (RapaTEMPO-NPs) were synthesized by a combination (1000 mg) and rapamycin (20 mg) and 4-hydoxy-TEMPO (20 mg) (polymer to total drug ratio […]) was chosen. Also, 50 mg of 3,3′-diethylthiadicarbocyanine iodide (Cy5, 680 fluorescent emission agent) was dissolved in 20 mL of DMSO. The mixture was then added into the dispersing phase (40 mL of water with 1.2 mL of 10% Pluronic F-68) dropwise under moderate magnetic stirring (500 rpm, 1 h). For size and shape measurements, synthesized nanomaterials were examined by SEM using a TESCAN GAIA-3 XMH integrated focused ion beam-FESEM electron microscope. […] XPS spectra of the samples were recorded on a Kratos Analytical AXIS Supra system with a monochromated Al/Ag X-ray source (Al target). Total survey spectra were recorded in a range from 1300 to −5 eV binding energy (dwell time 200 ms, step size 1 eV, 2 sweeps), and all the region scans were conducted with suitable ranges (dwell time 500 ms, step size 0.05 eV and 5 sweeps). The FTIR spectra were recorded using a Bruker ALPHA (Platinum-ATR) spectrometer in the diffuse reflectance mode at a resolution of 4 cm^−1. The rapamycin and 4-yydoxy-TEMPO loading efficiencies were quantified by High-Performance Liquid Chromatography (HPLC; SHIMADZU). […]

[2] = Drug release from NPs by dialysis and HPLC; type: physicochemical; details: monitored over a 7-day period; growth media with serum
Text: FIGS. 1A-I depict synthesis and characterization of polycystic kidney targeted nanoparticles. FIG. 1A: Schematic representation of synthesis, drug loading and surface functionalization of PLGA nanoparticles. FIG. 1B: The morphological features of the plain (unloaded) and drugs-loaded PLGA nanoparticles were imaged with scanning electron microscopy. Scale bars, 200 nm. FIG. 1C: Hydrodynamic size distribution of unloaded and drugs-loaded nanoparticles. FIG. 1D: Average zeta-potential measurements of unloaded and drugs-loaded nanoparticles. FIG. 1E: Average hydrodynamic size stability measurements of nanoparticles in saline (PBS), mouse plasma and growth media (DMEM) containing fetal bovine serum. […]
For both rapamycin and 4-hydoxy-TEMPO encapsulated nanoparticles (RapaTEMPO-NPs) were synthesized by a combination (1000 mg) and rapamycin (20 mg) and 4-hydoxy-TEMPO (20 mg) (polymer to total drug ratio […]) was chosen. […] XPS spectra of the samples were recorded on a Kratos Analytical AXIS Supra system with a monochromated Al/Ag X-ray source (Al target). Total survey spectra were recorded in a range from 1300 to −5 eV binding energy (dwell time 200 ms, step size 1 eV, 2 sweeps), and all the region scans were conducted with suitable ranges (dwell time 500 ms, step size 0.05 eV and 5 sweeps). […]

ADPKD cells = experiment: 3D cyst culture in Matrigel/collagen with forskolin and EGF; type: cell-based, human; details: 3D culture, treatment from day 1, evaluated on day 6
Description: FIGS. 2A-C depict functional nanoparticle-targeting in 3-dimensional culture. FIG. 2A: Human renal epithelia from normal kidney (NK) cells and autosomal dominant polycystic kidney disease (ADPKD) were grown to form cysts in a 3D Matrigel system with collagen in the presence of forskolin and EGF for 1 day followed by different treatments for 5 additional days. All representative live DIC and fluorescence images were taken at 6 days. Control treatment was denoted as vehicle (saline-only). 3D non-cyst/cyst cultures were imaged for nanoparticles uptake, cyst formation and cysts size measurements. The inset images at the right showing the enlarged cystic area taken from the white square boxes selected from the images at the left. Scale bar, 200 μm. FIG. 2B: Percent number of cysts were measured and plotted in bar graphs; each point represents an averaged of replicate.
3D cyst culture and live imaging. […] To assess the effects of vehicle (saline) and different plain and drug-loaded nanoparticles (1 mg/mL) were added (10 μL) on day one after stimulation with forskolin and cyst formation were evaluated on day 6. The cyst growth was observed by using Nikon live cell microscope using its DIC and fluorescence capabilities. […] Using ×20 lens, the number of cysts and their sizes (in diameter) in each well was counted and measured using an ocular scale from the Nikon Eclipse Imaging Software. […]

mTOR signaling pathway = experiment: Immunoblotting of p-S6K and p-S6 in kidney lysates; type: in vivo, mice; details: end of 9 weeks of therapy
Description: Drug-NPs were administered intravenously once, while drug-only was intravenously injected daily. N=5. […] Total-S6K (t-S6K), total-S6 (t-S6) and equal loading control (GAPDH). N=3. FIG. 4C: Immunoblot data for p-S6K in bar graphs. […] Statistical analysis was performed using ANOVA followed by Tukey's multiple comparison test.
Immunoblotting. After the completion of in-life studies, mice treated with the different control, plain and drug-loaded nanoparticles were euthanized, and the kidneys were collected and rinsed with PBS. Approximately 100 mg of tissue samples were placed in RIPA buffer supplemented with Complete Protease Inhibitor (MedChemExpress). […] Samples were then centrifuged at 20 000 rpm for 15 min, and the supernatants were collected and subjected to protein quantification. The PAGE (polyacrylamide gel electrophoresis) on 8-10% SDS gels was performed, followed by semi-dry transfer to PVDF membranes using a Bio-Rad Trans-Blot (Turbo Transfer) machine and detection using antibodies against p-S6 (1:000), p-S6K (1:1000), t-S6 (1:2000), t-S6K (1:2000) and GAPDH (1:1,000) (Cell Signaling Technology). Blots were scanned with both calorimetries to image molecular markers and chemiluminescence to capture the protein signal intensity using a BioRad Gel-doc imaging system.

Pkd2 mice [3] = experiment: CT imaging of total kidney volume; type: in vivo; details: CT at 3, 6 and 9 weeks
Description: FIGS. 20A-C. FIGS. 20A-B depict coronal and trans-axial CT imaging of mice at 3, 6 and 9 weeks of treatment time. FIG. 20C: Plots showing the total kidney volume at 3, 6 and 9 weeks of treatment time.
Because RapaTEMPO-NPs were applied prior to severe cystic development in the kidneys, lateral (FIG. 20A) and cross-section (FIG. 20B) of computerized tomography scans were performed in the kidneys at 3-, 6- and 9-weeks to monitor progression of changes in kidney volume. […] Longitudinal effects on blood pressure were also monitored throughout the treatment period (FIG. 21). The increase in blood pressure in kidney-specific Pkd2 seemed to be associated with expansion of renal cysts leading to compression in renal vasculature and eventual RAAS activation.

polycystic kidneys = details: literature; cited from earlier work
Pkd2 mice [4] = experiment: 9-week treatment of Pkd2 mice: body weight, survival, cysts, fibrosis, kidney fluorescence; details: long-term use, drug-alone 1 mg/kg i.v. daily
Description: FIG. 5A: Kidney comparison of wild-type (WT) and Pkd2 kidneys after 9-weeks of treatment. Color, brightfield, fluorescent images were captured consecutively. The hematoxylin and eosin (H&E) sections were obtained from the same corresponding kidneys.
FIG. 5B: Fluorescence intensity measurements from isolated kidneys were normalized to total kidney volume (TKV). […] FIG. 5D: Total kidney weight measurement. FIG. 5D. Percent weight ratio of 2 kidneys to body weight (2 KW/BW). FIG. 5F: Total cyst number calculated using H&E staining. FIG. 5G: Kaplan-Meier survival curves analyzed with Log-rank test. N=5 for all experiments. *P<0.05, **P<0.01, ***P<0.001, ****P<0.0001 compared to wild-type vehicle. #P<0.05, ##P<0.01, #44P<0.001, #44t #P<0.0001 compared to Pkd2 vehicle. Statistical analysis was performed using ANOVA followed by Tukey's multiple comparison test.
Animal studies. […] All animal experimentation was conducted as double-blinded operators to disregard biases and critical analyses. All control (KspCre·Pkd2^WT/WT) and PKD (KspCre·Pkd2^flox/flox) non-inducible mice models were obtained from the Jackson Laboratory and Harvard Medical School.
Histology Studies. Sections of the mouse visceral organs (hearts, kidneys, livers, spleens, and lung)s, were collected and subjected to hematoxylin and eosin (H&E) staining by starting the tissue fixation using 10% formalin. Then, the tissues were dehydrated in buffered formalin, ethanol, and xylene. Finally, the tissues were embedded in liquid paraffin, sectioned (5 μm), and stained with H&E for histological examinations. The pathology slices were observed and imaged using a KEYENCE BZ-X710 microscope. Mouse normal and polycystic kidney sections were stained with Masson's trichrome to detect fibrosis using a Masson's Trichrome Stain Kit (Polysciences, Inc.).
Throughout the studies, KspCre·Pkd2^WT/WT and KspCre·Pkd2^flox/flox mouse models were used and are respectively referred to wild-type and Pkd2 mice henceforth.

Structure (SMILES)	Drug loading, weight ratio drug/NPs [1] [%]	Time of maximum drug release from NPs [2]	Cyst number and size (ADPKD cells)	Effect on levels of phosphorylation of S6K and S6 (mTOR signaling pathway)	Total kidney volume over treatment time (Pkd2 mice [3])	Kidney injury and fibrosis (polycystic kidneys)	Body weight (Pkd2 mice [4])	Body weight (Pkd2 mice [4]; listed as rapamycin-alone)
CC1(C)CC(O)CC(C)(C)N1[O] [4-hydroxy-[2,2,6,6-tetramethylpiperidin-1-yl]oxidanyl]	34.7±3.1	about 3 days	some effect	minimal effect	no effect in kidney volume expansion	alleviate kidney injury and fibrosis by reducing renal superoxide		
CO[C@H]1C[C@@H]2CC[C@@H](C)[C@@](O)(O2)C(=O)C(=O)N2CCCC[C@H]2C(=O)O[C@H]([C@H](C)C[C@@H]2CC[C@@H](O)[C@H](OC)C2)CC(=O)[C@H](C)/C=C(\C)[C@@H](O)[C@@H](OC)C(=O)[C@H](C)C[C@H](C)/C=C/C=C/C=C/1C [rapamycin]							reduced	significantly lowered the body weight; also recorded: nor reduces the impediment in body weight gain

Reference: patent publication US20240050420A1, “NANOMEDICINES FOR TREATMENT OF DISEASE” (Chapman University, priority 2022, published 2024)
